Where a name gives a salt, the structure may show the parent alone.
Molecular target: T1, human vasopressin V1b receptor (Homo sapiens, UniProt P47901)
T1 construct: expressed in transfected cells; host or cells: CHO-K1 (cell line hV1b-3H2_CHO), membrane preparation
T1 sequence (P47901 1-424): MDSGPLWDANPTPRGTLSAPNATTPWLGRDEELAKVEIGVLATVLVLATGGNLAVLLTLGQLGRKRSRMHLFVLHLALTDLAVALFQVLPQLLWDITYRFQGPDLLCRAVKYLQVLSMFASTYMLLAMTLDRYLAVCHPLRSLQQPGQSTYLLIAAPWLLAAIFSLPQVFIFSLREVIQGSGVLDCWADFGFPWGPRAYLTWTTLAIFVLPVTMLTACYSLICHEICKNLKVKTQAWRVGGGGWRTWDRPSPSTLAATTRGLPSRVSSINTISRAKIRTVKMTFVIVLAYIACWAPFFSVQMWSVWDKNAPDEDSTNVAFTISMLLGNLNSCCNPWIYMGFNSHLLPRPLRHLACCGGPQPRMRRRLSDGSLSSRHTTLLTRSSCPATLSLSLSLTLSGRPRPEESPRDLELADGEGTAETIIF
Test: Vasopressin V1b receptor binding assay
Conditions: membranes from CHO-K1 cells with stably expressed human V1b receptors, 1.5 nM 3H-AVP displacement; with more than one stereogenic center: the diastereomer with stronger affinity
Experimental: Such compounds can be investigated in suitable assays which establish the affinity to a receptor, with the affinity constant Ki represening a measure of the potency of the compounds and a smaller value representing a larger potency. The compounds of the invention were tested in the following receptor binding assay for their affinity for the V1 b receptor.
Vasopressin V1 b Receptor Binding Assay:
The test substances were dissolved in a concentration of 10^−2 M in DMSO (dimethyl sulfoxide) and further diluted to 5×10^−4 M to 5×10^−9 M in DMSO. This series of DMSO predilutions was diluted 1:10 with assay buffer. The substance concentration was again diluted 1:5 in the assay mixture (2% DMSO in the mixture).
The membrane pellet was again homogenized and centrifuged as described and then taken up in 50 mM Tris-HCl, pH 7.4, homogenized and stored in aliquots frozen in liquid nitrogen at −190° C.
The incubation buffer was: 50 mM Tris, 10 mM MgCl2, 0.1% BSA, pH 7.4.
The nonspecific binding was determined with 1 μM AVP (Bachem #H1780). All determinations were carried out as triplicate determinations. After incubation (60 minutes at room temperature), the free radioligand was removed by vacuum filtration (Skatron cell harvester 7000) through Whatman GF/B glass fiber filter mats, and the filters were transferred into scintillation vials. The liquid scintillation measurement took place in a Tricarb model 2000 or 2200CA instrument (Packard). Conversion of the measured cpm into dpm was carried out with the aid of a standard quench series.
The binding parameters were calculated by nonlinear regression in SAS.
The above assay was used to measure the affinities of the compounds of the invention for the human vasopressin V1 b receptor and to determine with affinity constants (Ki).

Row | Compound | Ki [µM]
1 | CCOc1ccc(OC)cc1C1(N2CCN(c3ccncc3)CC2)C(=O)N(S(=O)(=O)c2ccc(F)c3cccnc23)c2ccc(C#N)cc21 (racemic) [Example 81, (±)-5-Cyano-3-(2-ethoxy-5-methoxyphenyl)-1-(5-fluoroquinoline-8-sulfonyl)-3-(4-pyridin-4-ylpiperazin-1-yl)-2,3-dihydro-1H-indol-2-one] | < 0.01
2 | COc1ccccc1C1(N2CCN(c3ccncc3)CC2)C(=O)N(S(=O)(=O)c2cccc3cccnc23)c2cc(C)ccc21 (racemic) [Example 39, (±)-3-(2-Methoxyphenyl)-6-methyl-3-(4-pyridin-4-ylpiperazin-1-yl)-1-(quinoline-8-sulfonyl)-1,3-dihydroindol-2-one] | 0.01 to 0.05
3 | Cc1cccnc1C1(N2CCN(c3ccncc3)CC2)C(=O)N(S(=O)(=O)c2cccc3cccnc23)c2ccc(Cl)cc21 (racemic) [Example 9, (±)-5-Chloro-3-(3-methylpyridin-2-yl)-3-(4-pyridin-4-ylpiperazin-1-yl)-1-(quinoline-8-sulfonyl)-1,3-dihydroindol-2-one] | 0.01 to 0.05
4 | (+)-5-Cyano-3-(6-chloro-2-ethoxy-pyridin-3-yl)-1-(5-methoxy-pyridine-2-sulfonyl)-3-[4-(2-methyl-pyridin-4-yl)-piperazin-1-yl]-2,3-dihydro-1H-indol-2-one [Example 152] | < 0.01
5 | CCOc1ccc(OC)cc1C1(N2CCCN(c3ccnc(C)c3)CC2)C(=O)N(S(=O)(=O)c2cccc3cccnc23)c2ccc(C#N)cc21 (racemic) [Example 62, (±)-5-Cyano-3-(2-ethoxy-5-methoxyphenyl)-3-[4-(2-methylpyridin-4-yl)-[1,4]diazepan-1-yl]-1-(quinoline-8-sulfonyl)-2,3-dihydro-1H-indol-2-one] | < 0.01
6 | CCOc1cc(F)ccc1C1(N2CCN(c3ccncc3)CC2)C(=O)N(S(=O)(=O)c2ccc(OC)cn2)c2ccc(C#N)cc21 (racemic) [Example 32, (±)-5-Cyano-3-(2-ethoxy-4-fluorophenyl)-1-(5-methoxypyridine-2-sulfonyl)-3-(4-pyridin-4-ylpiperazin-1-yl)-2,3-dihydro-1H-indol-2-one] | < 0.01
7 | CCOc1ccccc1C1(N2CCN(c3ccncc3)CC2)C(=O)N(S(=O)(=O)c2cccc3cccnc23)c2ccc(C#N)cc21 (racemic) [Example 38, (±)-5-Cyano-3-(2-ethoxyphenyl)-3-(4-pyridin-4-ylpiperazin-1-yl)-1-(quinoline-8-sulfonyl)-2,3-dihydro-1H-indol-2-one] | 0.01 to 0.05
8 | COc1ncccc1C1(N2CCN(c3ccncc3)CC2)C(=O)N(S(=O)(=O)c2cccc3cccnc23)c2ccc(C#N)cc21 (racemic) [Example 4, (±)-5-Cyano-3-(2-methoxypyridin-3-yl)-3-(4-pyridin-4-ylpiperazin-1-yl)-1-(quinoline-8-sulfonyl)-2,3-dihydro-1H-indol-2-one] | 0.01 to 0.05
9 | CCOc1ccc(OC)cc1C1(N2CCN(c3ccnc(C)c3)CC2)C(=O)N(S(=O)(=O)c2cccc3c(C)ccnc23)c2ccc(C#N)cc21 (racemic) [Example 18, (±)-5-Cyano-3-(2-ethoxy-5-methoxyphenyl)-3-[4-(2-methylpyridin-4-yl)piperazin-1-yl]-1-(4-methylquinoline-8-sulfonyl)-2,3-dihydro-1H-indol-2-one] | < 0.01
10 | CCOc1ccc(OC)cc1C1(N2CCN(c3ccnc(C(C)C)c3)CC2)C(=O)N(S(=O)(=O)c2cccc3cccnc23)c2ccc(C#N)cc21 (racemic) [Example 57, (±)-5-Cyano-3-(2-ethoxy-5-methoxyphenyl)-3-[4-(2-isopropylpyridin-4-yl)piperazin-1-yl]-1-(quinoline-8-sulfonyl)-2,3-dihydro-1H-indol-2-one] | < 0.01

More lines, now with the values ahead:

Row | Ki [µM] | Compound
11 | < 0.01 | CCOc1ccc(OC)cc1C1(N2CCC(N3CCNCC3)CC2)C(=O)N(S(=O)(=O)c2ccc(OC)c3cccnc23)c2ccc(C#N)cc21 (racemic) [Example 87, (±)-5-Cyano-3-(2-ethoxy-5-methoxyphenyl)-1-(5-methoxyquinoline-8-sulfonyl)-3-(4-piperazin-1-ylpiperidin-1-yl)-2,3-dihydro-1H-indol-2-one hydrochloride]
12 | < 0.01 | CCOc1ccccc1C1(N2CCN(c3ccncc3)CC2)C(=O)N(S(=O)(=O)c2cccc3c(CC)ccnc23)c2ccc(C#N)cc21 (racemic) [Example 84, (±)-5-Cyano-3-(2-ethoxyphenyl)-1-(4-ethylquinoline-8-sulfonyl)-3-(4-pyridin-4-yl-piperazin-1-yl)-2,3-dihydro-1H-indol-2-one]
13 | < 0.01 | CCOc1nc(Cl)ccc1C1(N2CCC(N3CCNCC3)CC2)C(=O)N(S(=O)(=O)c2ccc(OC)cn2)c2ccc(C#N)cc21 (racemic) [Example 182, (±)-5-Cyano-3-(6-chloro-2-ethoxy-pyridin-3-yl)-1-(5-methoxy-pyridine-2-sulfonyl)-3-(4-piperazin-1-yl-piperidin-1-yl)-2,3-dihydro-1H-indol-2-one]
14 | < 0.01 | CCOc1nc(Cl)ccc1C1(N2CCC(N3CCN(C)CC3)CC2)C(=O)N(S(=O)(=O)c2ccc(OC)cn2)c2ccc(C#N)cc21 (racemic) [Example 170, (±)-5-Cyano-3-(6-chloro-2-ethoxy-pyridin-3-yl)-1-(5-methoxy-pyridine-2-sulfonyl)-3-[4-(4-methyl-piperazin-1-yl)-piperidin-1-yl]-2,3-dihydro-1H-indol-2-one]
15 | 0.01 to 0.05 | CCOc1cc(OC)ccc1C1(N2CCN(c3ccnc(C)c3)CC2)C(=O)N(S(=O)(=O)c2ccc(OC)cn2)c2ccc(C#N)cc21 (racemic) [Example 178, (±)-5-Cyano-3-(2-ethoxy-4-methoxy-phenyl)-1-(5-methoxy-pyridine-2-sulfonyl)-3-[4-(2-methyl-pyridin-4-yl)-piperazin-1-yl]-2,3-dihydro-1H-indol-2-one]
16 | < 0.01 | CCOc1ccc(OC)cc1C1(N2CCN(c3ccncc3)CC2)C(=O)N(S(=O)(=O)c2ccc(OC)cn2)c2ccc(C#N)cc21 (racemic) [Example 82, (±)-5-Cyano-3-(2-ethoxy-5-methoxyphenyl)-1-(5-methoxypyridine-2-sulfonyl)-3-(4-pyridin-4-ylpiperazin-1-yl)-2,3-dihydro-1H-indol-2-one]
17 | 0.01 to 0.05 | CCOc1ccc(OC)cc1C1(N2CCN(C3CCN(C)CC3)CC2)C(=O)N(S(=O)(=O)c2ccc(OC)cn2)c2ccc(C#N)cc21 (single isomer, unassigned; (+)) [Example 141, (+)-5-Cyano-3-(2-ethoxy-5-methoxy-phenyl)-1-(5-methoxy-pyridine-2-sulfonyl)-3-[4-(1-methyl-piperidin-4-yl)-piperazin-1-yl]-2,3-dihydro-1H-indol-2-one]
18 | 0.01 to 0.05 | CCOc1nc(Cl)ccc1C1(N2CC3CN(c4ccncc4)CC3C2)C(=O)N(S(=O)(=O)c2ccc(OC)cn2)c2ccc(C#N)cc21 (racemic) [Example 148, (±)-5-Cyano-3-(6-chloro-2-ethoxy-pyridin-3-yl)-1-(5-methoxy-pyridine-2-sulfonyl)-3-(5-pyridin-4-yl-hexahydro-pyrrolo[3,4-c]pyrrol-2-yl)-2,3-dihydro-1H-indol-2-one]
19 | < 0.01 | CCOc1nc(Cl)ccc1C1(N2CC3CN(c4ccnc(C)c4)CC3C2)C(=O)N(S(=O)(=O)c2ccc(OC)cn2)c2ccc(C#N)cc21 (racemic) [Example 149, (±)-5-Cyano-3-(6-chloro-2-ethoxy-pyridin-3-yl)-1-(5-methoxy-pyridine-2-sulfonyl)-3-[5-(2-methyl-pyridin-4-yl)-hexahydro-pyrrolo[3,4-c]pyrrol-2-yl]-2,3-dihydro-1H-indol-2-one]

Source: patent US8486931B2, “Substituted oxindole compounds” (Abbott GmbH & Co. KG, priority 2007, dated 2013)
